Assay results published in publication PMC8318231, “Rate-of-Kill (RoK) assays to triage large compound sets for Chagas disease drug discovery: Application to GSK Chagas Box” (PLoS Neglected Tropical Diseases, 2021).
Like-named read-outs stand apart in the source and are kept apart here.

Assays:
[1] = tested on: T. cruzi Tulahuen trypomastigotes; assay: T. cruzi trypomastigote assay (Cell Titer-Glo viability, ATP luminescence); type: cell-based, Trypanosoma cruzi; details: for Trypomastigotes pIC50 48 hours: 48 hours incubation; for Trypomastigotes pIC50 48 hours / Trypomastigotes pIC50 72 hours: pIC50 = -log10 IC50 in molar units; for Trypomastigotes pIC50 72 hours: 72 hours incubation; for activity in trypomastigotes assay (in words): 48 and 72 hours; for IC50: Trypanosoma cruzi, TULAHUEN
Procedure, shortened: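 Compounds were tested in dose response or once at a final 5 μM against 5 × 10^4 trypomastigotes per well (DMEM, 2% FBS), collected on days 5–8 from LLC-MK2 infected cultures. ATP luminescence via CellTiter-Glo reports live parasites; DMSO defines 0% and cell-free wells 100% effect.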

[2] = tested on: H9c2 (rat cardiomyocytes); assay: RoK assay, number of host cells nuclei (drug-related cytotoxicity, H9c2 output, Cmin_Tox); details: H9c2 host cells
Protocol: For this high-content intracellular imaging assay, H9c2 cells were seeded in 225 cm^2 T- FLASK in DMEM with 10% FBS for 4 h to allow attachment. T. cruzi trypomastigotes, collected at days 5 to 8 after infection from LLC-MK2 parasite infected cultures, were allowed to swim out for 4 h at 37°C from a centrifuged pellet (1,600 x g / 10 min). Trypomastigotes were then collected and counted in a CASY Cell Counter using the 60 μm capillary. […] Cells were washed once with PBS before incubation of the infected H9c2 monolayer with trypsin (Life-Technologies) to detach cells from the flask. Cells were counted in a CASY Cell Counter, using the 150 μm capillary, and their density set at 5 x 10^4 cells/mL in supplemented DMEM. Infected H9c2 were dispensed into 384-well plates at 50 μL per well using a Multidrop Combi dispenser. Control wells used to determine a 100% parasitic growth (full 6th column of each plate) were left untreated, whereas not infected cells were added in the control wells used as 0% parasite growth (or 100% parasite growth inhibition; full 18th column of each plate). The four plates corresponding to each RoK assay were predispensed for the same mother plate. […] Cultures were then fixed and stained with 50 μL per well of a PBS solution containing 4% formaldehyde and 2 μM DRAQ5 DNA dye (BioStatus, UK). Then plates were read in a PerkinElmer Opera Phenix using a 20x objective, 3 fields per well. DRAQ5 signal was detected using 640 nm excitation laser and a 690/50 nm emission detection filter. Automated image analysis was performed with a script developed on Acapella High Content Imaging and Analysis Software (PerkinElmer). Two outputs were provided for each sample well: (1) number of host cells nuclei to determine drug-related cytotoxicity (aka H9c2) and (2) number of amastigotes per cell as infection level measurement (aka AM/CELL). Each output is plotted as a time course for each compound at every concentration. This assay was adapted from Alonso-Padilla et al. and Peña et al..
• ME (Maximum Effect) is the maximum percentage of parasite burden reduction reached by any compound concentration. Compounds that decrease the initial parasite load will show a positive value of ME, whereas compounds that allow the progression of infection will render a negative ME value. […] It is calculated for the MCC50 (t50%_MCC50) and for the maximum concentration (t50%_Cmax). […] The value of this parameter is not either interpolated or extrapolated, and it refers to the first experimental time-course point at which a 50% of effect is reached or exceeded. • tlag defines the time elapsed for one particular concentration to reduce parasite burden between two consecutive points at any moment of the time course. It is calculated for the MCC50 (tlag_MCC50) and for the maximum concentration (tlag_Cmax). The value of this parameter is not either interpolated or extrapolated, and it refers to the first experimental time-course point of a positive slope in the normalised plot (i.e. %Cidal_Response). • Cmin_Tox (Minimal CytoToxic Concentration) is the lowest compound concentration that is reducing the number of host mammalian cells below 50% of initial cell density. Cytotoxic compounds may mislead a bona fide antiparasitic action. Therefore, this descriptor is used to flag this kind of compounds and warn about the genuine meaning of the rest of descriptors.

[3] = tested on: TcCYP51; details: formerly reported; cited from earlier work
[4] = 72 hours, plotted values, censored values given without sign
[5] = trypomastigote assay, 48 h, figure 1A
[6] = trypomastigote assay, 72 h, figure 1A
[7] = trypomastigote assay, 72 h, figure 1B

## c1ccc(CCNCc2cncc3nc(-c4cnccn4)n(C4CCCCC4)c23)cc1 [TCMDC-143346]
[1]
  Trypomastigotes pIC50 48 hours: < 4.3
  Trypomastigotes pIC50 72 hours: < 4.3
[1]; [4]
  72 pIC50 (trypomastigotes, raw data of Fig 1D): < 4.3
[1]; [5]
  48 pIC50: < 4.3
[1]; [6]
  72 pIC50: < 4.3
[1]; [7]
  72 pIC50: < 4.3
[2]
  Cmin_Tox: >50 µM
[3]
  CYP51 pIC50: 7

## CN1CCCN(C(=O)c2ccc(N3CCCC3)cc2Cl)CC1 [TCMDC-143127]
[1]
  Trypomastigotes pIC50 48 hours: < 4.3
  Trypomastigotes pIC50 72 hours: < 4.3
[1]; [4]
  72 pIC50 (trypomastigotes, raw data of Fig 1D): < 4.3
[1]; [5]
  48 pIC50: < 4.3
[1]; [6]
  72 pIC50: < 4.3
[1]; [7]
  72 pIC50: < 4.3
[2]
  Cmin_Tox: >50 µM
[3]
  CYP51 pIC50: < 4

## CCC(=O)Nc1ccc(-c2nc3ccc(Cl)cc3[nH]2)cc1 [TCMDC-143135]
[1]
  Trypomastigotes pIC50 48 hours: 5.3
  Trypomastigotes pIC50 72 hours: 5.4
[2]
  Cmin_Tox: >50 µM
[3]
  CYP51 pIC50: < 4

## CC(C)c1cc(C(=O)N2CCCC(c3cc4ncccc4[nH]3)C2)on1 (centres unmarked) [TCMDC-143439]
[1]
  Trypomastigotes pIC50 48 hours: 5.3
  Trypomastigotes pIC50 72 hours: 5.3
[1]; [4]
  72 pIC50 (trypomastigotes, raw data of Fig 1D): 5.3
[1]; [5]
  48 pIC50: 5.3
[1]; [6]
  72 pIC50: 5.3
[1]; [7]
  72 pIC50: 5.3
[2]
  Cmin_Tox: >50 µM
[3]
  CYP51 pIC50: 4.3

## CCCc1nc2nc(N)nc(N)c2cc1CC [TCMDC-143606]
[1]
  Trypomastigotes pIC50 48 hours: 5.9
  Trypomastigotes pIC50 72 hours: 5.8
[2]
  Cmin_Tox: >50 µM
[3]
  CYP51 pIC50: < 4

## O=C(CSc1ccc(-c2ccccn2)nn1)Nc1ccc(Cl)cc1 [TCMDC-143552]
[1]
  Trypomastigotes pIC50 48 hours: 5.4
  Trypomastigotes pIC50 72 hours: 5.5
[2]
  Cmin_Tox: >50 µM
[3]
  CYP51 pIC50: < 4

## Cn1cc(CN2CCN(c3ccc4c(c3)CCN(C(=O)[C@H]3C[C@@H]3c3ccccc3)CC4)CC2)cn1 [TCMDC-143537]
[1]
  Trypomastigotes pIC50 48 hours: 5
  Trypomastigotes pIC50 72 hours: 4.9
[2]
  Cmin_Tox: >50 µM
[3]
  CYP51 pIC50: 4.8

## Cc1nnnn1-c1cccc(C(=O)N2CCC[C@@]3(C)c4ncncc4CCC23)c1 (some centres unmarked) [TCMDC-143148]
[1]
  Trypomastigotes pIC50 48 hours: < 4.3
  Trypomastigotes pIC50 72 hours: < 4.3
[1]; [4]
  72 pIC50 (trypomastigotes, raw data of Fig 1D): < 4.3
[1]; [5]
  48 pIC50: < 4.3
[1]; [6]
  72 pIC50: < 4.3
[1]; [7]
  72 pIC50: < 4.3
[2]
  Cmin_Tox: >50 µM
[3]
  CYP51 pIC50: 4.6

## COc1ccc(NS(=O)(=O)c2cc(NC(=O)c3ccc([N+](=O)[O-])s3)ccc2OC)cc1 [TCMDC-143163]
[1]
  activity in trypomastigotes assay (in words): potent activity
  Trypomastigotes pIC50 48 hours: 6.9
  Trypomastigotes pIC50 72 hours: 6.6
[2]
  Cmin_Tox: >50 µM
[3]
  CYP51 pIC50: 6

## CC(C)Oc1cccc(N2CCC(C(=O)N3CCCN(C(C)C)CC3)CC2)c1.Cl [TCMDC-143432]
[1]
  Trypomastigotes pIC50 48 hours: < 4.3
  Trypomastigotes pIC50 72 hours: < 4.3
[1]; [4]
  72 pIC50 (trypomastigotes, raw data of Fig 1D): < 4.3
[1]; [5]
  48 pIC50: < 4.3
[1]; [6]
  72 pIC50: < 4.3
[1]; [7]
  72 pIC50: < 4.3
[2]
  Cmin_Tox: >50 µM
[3]
  CYP51 pIC50: < 4

## CC[C@@H]([C@H](C)O)n1ncn(-c2ccc(N3CCN(c4ccc(OC[C@@H]5CO[C@@](Cn6cncn6)(c6ccc(F)cc6F)C5)cc4)CC3)cc2)c1=O [Posaconazole, reference compound]
[1]
  activity in trypomastigotes assay (in words): inactive
[1]; 48 h, read-out: Trypomastigotes pIC50 48 hours (converted)
  IC50: > 50.1 µM
[1]; 72 h, read-out: Trypomastigotes pIC50 72 hours (converted)
  IC50: > 50.1 µM
[1]; 72 hours, plotted values, censored values given without sign, read-out: 72 pIC50 (trypomastigotes, raw data of Fig 1D) (converted)
  IC50: > 50.1 µM
[1]; trypomastigote assay, 48 h, figure 1A, read-out: 48 pIC50 (converted)
  IC50: > 50.1 µM
[1]; trypomastigote assay, 72 h, figure 1A, read-out: 72 pIC50 (converted)
  IC50: > 50.1 µM
[1]; [7]
  72 pIC50: < 4.3
[2]
  Cmin_Tox: 42.2 µM
[3]
  CYP51 pIC50: 7.3

## NC(=O)c1ccccc1Nc1nc(NC2CCCCC2)nc2[nH]ccc12 [TCMDC-143314]
[1]
  Trypomastigotes pIC50 48 hours: 5.1
  Trypomastigotes pIC50 72 hours: 4.4
[2]
  Cmin_Tox: 1.9 µM
[3]
  CYP51 pIC50: < 4
